Drawing on patent US20060166933A1, “Novel 2H-chromene derivatives as selective estrogen receptor modulators” (priority 2004, published 2006), this text covers IC50 for six compounds.

A value given as a limit tells only on which side of the number the result lay.

Test [1] deals with T1, human estrogen receptor α (Homo sapiens, UniProt P03372).
T1 construct: purchased Panvera
T1 sequence (P03372 1-595): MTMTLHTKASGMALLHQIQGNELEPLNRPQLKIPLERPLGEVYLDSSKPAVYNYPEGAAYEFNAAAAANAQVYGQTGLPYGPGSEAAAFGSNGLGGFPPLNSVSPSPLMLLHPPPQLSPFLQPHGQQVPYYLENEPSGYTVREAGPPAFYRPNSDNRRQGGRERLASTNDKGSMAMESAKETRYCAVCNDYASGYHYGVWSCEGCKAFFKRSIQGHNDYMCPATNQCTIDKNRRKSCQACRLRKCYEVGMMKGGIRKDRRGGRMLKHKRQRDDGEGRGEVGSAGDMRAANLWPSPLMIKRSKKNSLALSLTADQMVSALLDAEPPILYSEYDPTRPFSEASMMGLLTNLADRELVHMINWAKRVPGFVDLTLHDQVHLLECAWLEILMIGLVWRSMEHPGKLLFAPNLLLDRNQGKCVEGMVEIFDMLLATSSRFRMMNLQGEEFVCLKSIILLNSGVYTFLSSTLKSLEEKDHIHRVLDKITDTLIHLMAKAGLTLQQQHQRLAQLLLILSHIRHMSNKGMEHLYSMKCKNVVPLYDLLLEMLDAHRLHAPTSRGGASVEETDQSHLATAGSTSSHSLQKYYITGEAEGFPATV
Description: Estrogen Receptor α Flash Plate Assay (binding of radiolabeled estrogen). As to conditions: radiolabeled estrogen 0.5 nM, FlashPlate, 1 h room temperature; read-out: ER-α Binding. On the procedure: Estrogen Receptor α Flash Plate Assay
This assay monitors binding of radiolabeled estrogen to the estrogen receptor. It is performed on a BioMek 2000 (Beckman). Plates are read in a scintillation counter (Packard TopCount), with decreased counts an indication of binding of a compound to the receptor. The assay was run according to the procedure described by Allan, et al., Anal. Biochem. (1999), 275(2), 243-247.
On day one, 100 μL of Estrogen Screening Buffer (ESB, Panvera) containing 5 mM dithiothreitol (DTT, Panvera), 0.5 μg mouse anti-estrogen receptor monoclonal antibody (SRA-1010, Stressgen) and 50 ng purified human estrogen receptor a (Panvera) were added to each well of a 96 well FlashPlate Plus plate crosslinked with goat anti-mouse antibodies (NEN Life Sciences). The plate was sealed and incubated at 4° C. overnight.
On day two, each well was washed three times with 200 μL PBS, pH 7.2, at room temperature. To each well was then added 98 μL radiolabeled estrogen (0.5 nM, which equals 6 nCi for a 120 Ci/mmol batch, Amersham), diluted in ESB and 5 mM dithiothreitol (DTT). To individual wells were then added 2.5 μL test compound diluted in 30% (v/v) dimethyl sulfoxide/50 mM HEPES, pH 7.5. The wells were mixed three times by aspiration, the plate sealed and incubated at room temperature for one hour. The wells were then counted for 1 min in a TopCount scintillation counter (Packard).
(§1) Representative compounds of the present invention were tested according to the procedures described in Examples 23-24, above for binding to the estrogen-α and estrogen-β receptors, with results as listed in Table 2, below.

Test [2] concerns the target T2, hER-β (Homo sapiens, UniProt Q92731).
T2 construct: purchased Panvera
Description: Estrogen Receptor β Fluorescence Polarization Assay (Fluormone ES2 displacement). As to conditions: Fluormone ES2, 1 h room temperature, read-out: ER β-Binding.
Description: Estrogen Receptor β Fluorescence Polarization Assay
This assay monitors binding of a fluorescent analog of estrogen (Fluormone ES2, Panvera) to the estrogen receptor. Plates are read in a fluorometer that can be set to polarization mode. A decrease in […] relative to vehicle control is an indication of binding of a compound to the receptor.
It is crucial to avoid introduction of air bubbles into the reaction in each well of the 96 well plate throughout this procedure. (Bubbles on the surface of the reaction disrupt light flow, affecting the polarization reading.) However, it is also crucial to effectively mix the reaction components upon addition to the well.
On ice, a 2× standard mixture of Assay Buffer (Panvera), 10 nM DTT and 40 nM ES2 was prepared. On ice, a 2× reaction mixture of Assay Buffer (Panvera), and 20 nM hER-β (Panvera) and 40 nM ES2 was also prepared.
Dilutions of test compound were prepared in 30% (v/v) dimethyl sulfoxide/50 mM HEPES, pH 7.5. At this point, the dilutions were 40× the final required concentration.
The standard mixture at 50 μL was then added to each well. The reaction mixture at 48 μL was added to all wells. The compound dilution at 2.5 μL was added to the appropriate wells. The reaction mixtures were mixed using a manual pipette, a roll of aluminum foil adhesive cover was placed on the plate and the plate incubated at room temperature for 1 hour.
Each well on the plate was then read in an LjL Analyst with an excitation wavelength of […] and an emission wavelength of 538.
as §1
On the technique in general: Polarisation of emitted light reports the rotation of a fluorescent probe.

T2 sequence (Q92731 whole entry): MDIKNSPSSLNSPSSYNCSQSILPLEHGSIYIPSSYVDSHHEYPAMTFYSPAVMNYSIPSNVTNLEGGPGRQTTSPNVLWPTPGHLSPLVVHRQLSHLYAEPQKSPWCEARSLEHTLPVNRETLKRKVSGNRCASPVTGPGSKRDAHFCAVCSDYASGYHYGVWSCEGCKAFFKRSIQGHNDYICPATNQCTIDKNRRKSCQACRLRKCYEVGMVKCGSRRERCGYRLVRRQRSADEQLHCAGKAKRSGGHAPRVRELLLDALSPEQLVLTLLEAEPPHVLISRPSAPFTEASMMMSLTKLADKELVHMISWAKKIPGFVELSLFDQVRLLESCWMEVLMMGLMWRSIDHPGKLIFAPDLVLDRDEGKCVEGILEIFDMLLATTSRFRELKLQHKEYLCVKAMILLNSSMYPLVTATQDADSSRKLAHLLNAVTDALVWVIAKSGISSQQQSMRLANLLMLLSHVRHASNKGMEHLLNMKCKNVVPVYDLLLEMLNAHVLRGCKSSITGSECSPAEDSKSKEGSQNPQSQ

Turning to “4-(2-Hydroxy-ethyl)-2-[4-(2-piperidin-1-yl-ethoxy)-phenyl]-2H-chromen-7-ol [ID No. 6]”, the IC50 in test [1] and in test [2] was 500 nM each time.

Take “4-Methyl-2-[4-(2-piperidin-1-yl-ethoxy)-phenyl]-2-H-chromen-7-ol [ID No. 4]”: the IC50 in test [1] is 2200 nM; in test [2], more than 10000 nM.

In the case of `CC1=C(COCC[Si](C)(C)C)[C@H](c2ccc(OCCN3CCCCC3)cc2)Oc2cc(O)ccc21` (single isomer, unassigned) [compound 3], the IC50 in test [1] is 180 nM; in test [2], more than 10000 nM.

On to `OCCC1=CC(c2ccc(OCCN3CCCCC3)cc2)Oc2cc(O)ccc21` (stereo not drawn) [compound 6], for which the IC50 in test [1] and in test [2] was more than 10000 nM in each case.

As for `Oc1ccc2c(c1)OC(c1ccc(OCCN3CCCCC3)cc1)C1=C2CCCCC1` (stereo not drawn) [compound 9], the figures for the IC50 in test [1] and in test [2] were 59 nM and 690 nM, respectively.

`Oc1ccc2c(c1)OC(c1ccc(OCCN3CCCCC3)cc1)C=C2C1CCCC1` (stereo not drawn) [compound 10]: the figures for the IC50 in test [1] and in test [2] were 180 nM and 500 nM, respectively.
